In patent US10428081B2, “EGFR inhibitor, preparation method and use thereof” (Shanghai Hansoh Biomedical Co., Ltd., priority 2014, dated 2019):

What was measured:
[1] = target: exon 20 T790M mutant-type EGFR enzyme (Homo sapiens, UniProt P00533, T790M); assay: Enzymologic experiment of T790M mutant-type EGFR (TR-FRET); type: biochemical; details: for IC50: T790M EGFR enzyme, TR-FRET, ATP 1 to 10 uM; for Selectivity of wild-type/mutant-type: ratio WT IC50 / T790M IC50, enzyme
Experimental: (§1) 2) 1 to 5 μL of diluted solution in gradient of the compound was added.
(§2) 3) The mixture was incubated for 10 minutes at room temperature.
(§3) 6) 5 μL of EDTA stop solution was added to terminate the reaction for 5 minutes.
7) […] of a test solution containing the labeled antibody was added, and the mixture was incubated at room temperature for 1 hour.
9) The inhibition rates were calculated according to the fluorescence signal values.
(§4) 10) The IC50 of the compound was obtained by curve fitting according to the inhibition rates at different concentrations.

NCI-H1975 cells = assay: Inhibition of NCI-H1975 cell proliferation (CellTiter-Glo); type: cell-based; details: for IC50: Homo sapiens, NCI-H1975, 72 h, NCI-H1975 cell proliferation, 72 hours, CellTiter-Glo, read-out: EGFR IC50 (nM) H1975; for Selectivity of wild-type/mutant-type: ratio A431 IC50 / H1975 IC50, cells
Experimental: 3. Experiment on the Inhibition of NCI-H1975 Cell Proliferation
In this experiment, the inhibitory effect of the compounds on NCI-H1975 cell proliferation was tested by a CellTiter-Glo method, and the half maximal inhibitory concentration (IC50) of the compounds on the activity of cell proliferation was determined.
The culture plate was incubated in an incubator for 16 to 24 hours (37° C., 5% CO2).
(§5) 2) Different concentrations of the test compound in a gradient dilution were added to the cells in the culture plate. The culture plate was incubated in an incubator for 72 hours (37° C., 5% CO2).
3) 50 to 100 μL of CellTiter-Glo reagent was added to each well. Then, the culture plate was shaken for 10 minutes, and left to stand at room temperature for 10 minutes.
(§6) 4) The chemiluminescence signal values of each plate were determined by a microplate reader.
5) The inhibition rates were calculated according to the chemiluminescence signal values.
6) The IC50 of the compound was obtained by curve fitting according to the inhibition rates at different concentrations.

wild-type EGFR enzyme = wild-type EGFR enzyme (Homo sapiens, UniProt P00533); assay: Enzymologic experiment of wild-type (WT) EGFR (TR-FRET); type: biochemical; details: ATP 0.1 to 5 uM
Experimental: 2. Enzymologic Experiment of Wild-Type (WT) EGFR
In this experiment, the inhibitory effect of compounds on wild-type EGFR enzyme was tested by a fluorescence resonance energy transfer (TR-FRET) method, and the half maximal inhibitory concentration IC50 of the compounds on enzymatic activity was determined.
1) 1 to 5 μL of wild-type EGFR enzyme solution was added to a 384-well plate, and the final concentration of the enzyme was 0.1 to 1 nM.
as §1, §2, §3
7) 5 μL of a test solution containing the labeled antibody was added, and the mixture was incubated at room temperature for 1 hour.
9) The inhibition rates were calculated from the fluorescence signal values.
as §4

A431 cells = assay: Inhibition of A431 cell proliferation (CellTiter-Glo); type: cell-based; details: Homo sapiens, A-431, 72 h, read-out: EGFR IC50 (nM) A431
Experimental: 4. Experiment on the Inhibition of A431 Cell Proliferation
In this experiment, the inhibitory effect of the compounds on A431 cell proliferation was tested by a CellTiter-Glo method, and the half maximal inhibitory concentration (IC50) of the compounds on the activity of cell proliferation was determined.
The culture plate was incubated in the incubator for 16 to 24 hours (37° C., 5% CO2).
as §5
3) 50 to 100 μL of CellTiter-Glo reagent was added to each well. Then the culture plate was shaken for 10 minutes, and left to stand at room temperature for 10 minutes.
as §6
5) The inhibition rates were calculated according to the chemiluminescence signal values. 6) The IC50 of the compound was obtained by curve fitting according to the inhibition rates at different concentrations.

Sequence of wild-type EGFR enzyme (P00533 25-1210): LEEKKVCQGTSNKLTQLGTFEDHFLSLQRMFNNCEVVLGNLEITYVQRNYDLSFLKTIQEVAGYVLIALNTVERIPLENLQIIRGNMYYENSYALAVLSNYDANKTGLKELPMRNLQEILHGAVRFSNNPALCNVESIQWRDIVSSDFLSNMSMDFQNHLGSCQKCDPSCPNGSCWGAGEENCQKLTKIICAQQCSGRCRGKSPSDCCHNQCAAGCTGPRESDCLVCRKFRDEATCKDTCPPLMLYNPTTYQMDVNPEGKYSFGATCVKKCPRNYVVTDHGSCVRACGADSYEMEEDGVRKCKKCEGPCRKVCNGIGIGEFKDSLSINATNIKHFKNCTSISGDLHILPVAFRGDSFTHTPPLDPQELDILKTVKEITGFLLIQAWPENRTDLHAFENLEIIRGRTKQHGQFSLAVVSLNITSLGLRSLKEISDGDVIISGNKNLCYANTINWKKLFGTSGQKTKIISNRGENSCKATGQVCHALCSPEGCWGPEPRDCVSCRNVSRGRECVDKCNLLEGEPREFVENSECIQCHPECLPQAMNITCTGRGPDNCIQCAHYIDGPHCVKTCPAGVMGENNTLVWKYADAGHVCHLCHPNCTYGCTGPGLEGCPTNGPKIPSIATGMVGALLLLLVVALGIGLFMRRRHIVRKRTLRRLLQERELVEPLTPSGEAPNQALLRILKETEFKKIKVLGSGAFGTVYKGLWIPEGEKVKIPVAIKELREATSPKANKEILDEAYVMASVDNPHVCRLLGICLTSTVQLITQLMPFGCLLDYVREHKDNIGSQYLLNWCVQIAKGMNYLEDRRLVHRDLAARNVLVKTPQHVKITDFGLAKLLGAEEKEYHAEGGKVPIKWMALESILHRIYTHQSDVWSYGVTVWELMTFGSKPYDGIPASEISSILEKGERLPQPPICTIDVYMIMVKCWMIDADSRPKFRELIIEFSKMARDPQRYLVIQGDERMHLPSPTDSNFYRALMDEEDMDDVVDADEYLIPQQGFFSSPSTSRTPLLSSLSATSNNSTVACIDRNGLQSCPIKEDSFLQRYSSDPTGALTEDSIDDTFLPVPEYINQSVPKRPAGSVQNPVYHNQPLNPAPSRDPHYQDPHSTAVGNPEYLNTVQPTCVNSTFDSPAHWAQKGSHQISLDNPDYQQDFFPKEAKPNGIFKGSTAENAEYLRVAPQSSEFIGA
Sequence of exon 20 T790M mutant-type EGFR enzyme (P00533 25-1210 T790M): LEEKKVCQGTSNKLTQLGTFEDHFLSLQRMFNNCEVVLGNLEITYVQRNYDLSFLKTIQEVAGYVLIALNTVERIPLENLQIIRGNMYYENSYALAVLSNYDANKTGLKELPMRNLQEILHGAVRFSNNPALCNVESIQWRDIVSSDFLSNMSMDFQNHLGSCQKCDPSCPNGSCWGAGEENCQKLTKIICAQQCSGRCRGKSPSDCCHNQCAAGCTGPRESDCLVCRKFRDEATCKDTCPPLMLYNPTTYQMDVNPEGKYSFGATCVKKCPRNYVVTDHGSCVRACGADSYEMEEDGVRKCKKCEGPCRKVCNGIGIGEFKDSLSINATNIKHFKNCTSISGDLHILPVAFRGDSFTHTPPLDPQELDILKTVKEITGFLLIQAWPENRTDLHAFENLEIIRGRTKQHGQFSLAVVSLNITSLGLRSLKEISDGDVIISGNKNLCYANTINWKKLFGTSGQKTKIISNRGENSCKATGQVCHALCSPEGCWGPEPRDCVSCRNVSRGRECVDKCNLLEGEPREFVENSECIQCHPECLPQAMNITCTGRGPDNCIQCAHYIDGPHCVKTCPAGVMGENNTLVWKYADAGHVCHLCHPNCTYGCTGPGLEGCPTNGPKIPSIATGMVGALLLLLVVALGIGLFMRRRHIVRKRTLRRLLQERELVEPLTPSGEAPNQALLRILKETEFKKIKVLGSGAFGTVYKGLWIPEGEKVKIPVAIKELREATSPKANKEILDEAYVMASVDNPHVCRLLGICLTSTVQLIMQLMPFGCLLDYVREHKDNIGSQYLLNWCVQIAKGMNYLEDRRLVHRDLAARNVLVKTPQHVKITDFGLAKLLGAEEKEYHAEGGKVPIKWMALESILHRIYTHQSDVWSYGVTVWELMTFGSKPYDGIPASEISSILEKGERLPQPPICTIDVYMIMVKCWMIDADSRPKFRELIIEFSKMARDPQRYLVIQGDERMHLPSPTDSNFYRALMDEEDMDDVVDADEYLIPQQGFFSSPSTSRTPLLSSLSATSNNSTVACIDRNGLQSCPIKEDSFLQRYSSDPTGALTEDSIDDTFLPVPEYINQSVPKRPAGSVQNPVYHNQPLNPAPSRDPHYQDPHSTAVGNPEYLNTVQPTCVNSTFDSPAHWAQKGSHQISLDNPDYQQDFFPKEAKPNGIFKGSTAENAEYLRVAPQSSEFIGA

SMILES	IC50 [1] [nM]	Selectivity of wild-type/mutant-type [1]	IC50 (NCI-H1975 cells) [nM]	Selectivity of wild-type/mutant-type (NCI-H1975 cells)	IC50 (wild-type EGFR enzyme) [nM]	IC50 (A431 cells) [nM]
C=CC(=O)Nc1cc(Nc2nccc(-n3cnc4ccc(OC)cc43)n2)c(OC)cc1N(C)CCN(C)C [Example 60, N-(2-((2-(dimethylamino)ethyl)(methyl)amino)-4-methoxy-5-((4-(6-methoxy-1H-benzo[d]imidazol-1-yl)pyrimidin-2-yl)amino)phenyl)acrylamide]	0.33	6.16	2.94	50.82	2.03	149
C=CC(=O)Nc1cc(Nc2ncc(C(F)(F)F)c(-c3cn(C)c4cc(OC)ccc34)n2)c(OC)cc1N(C)CCN(C)C [Example 99, N-(2-((2-(dimethylamino)ethyl)(methyl)amino)-4-methoxy-5-((4-(6-methoxy-1-methyl-1H-indol-3-yl)-5-(trifluoromethyl)pyrimidin-2-yl)amino)phenyl)acrylamide]	0.21	23.86	2.08	17.57	5.01	36.5
C=CC(=O)Nc1cc(Nc2ncc(C(F)(F)F)c(-n3cnc4cc(OC)ccc43)n2)c(OC)cc1N(C)CCN(C)C [Example 67, N-(2-((2-(dimethylamino)ethyl)(methyl)amino)-4-methoxy-5-((4-(5-methoxy-1H-benzo[d]imidazol-1-yl)-5-(trifluoromethyl)pyrimidin-2-yl)amino)phenyl)acrylamide]	1.63	231.9	3.73	85.95	378	321
C=CC(=O)Nc1cc(Nc2nccc(-c3cn(C)c4cc(F)c(F)cc34)n2)c(OC)cc1N(C)CCN(C)C [Example 28, N-(5-((4-(5,6-difluoro-1-methyl-1H-indol-3-yl)pyrimidin-2-yl)amino)-2-((2-(dimethylamino)ethyl)(methyl)amino)-4-methoxyphenyl)acrylamide]	1.83	1.0	6.4	42.52	1.89	272
C=CC(=O)Nc1cc(Nc2nccc(-n3ncc4cc(C#N)ccc43)n2)c(OC)cc1N(C)CCN(C)C [Example 50, N-(5-((4-(5-cyano-1H-indazol-1-yl)pyrimidin-2-yl)amino)-2-((2-(dimethylamino)ethyl)(methyl)amino)-4-methoxyphenyl)acrylamide]	0.66	9.68	6.14	81.87	6.39	503
C=CC(=O)Nc1cc(Nc2ncc(Cl)c(-c3cn(C4COC4)c4ccccc34)n2)c(OC)cc1N(C)CCN(C)C [Example 130, N-(5-((5-chloro-4-(1-(oxetan-3-yl)-1H-indol-3-yl)pyrimidin-2-yl)amino)-2-((2-(dimethylamino)ethyl)(methyl)amino)-4-methoxyphenyl)acrylamide]	–	–	–	–	–	97
C=CC(=O)Nc1cc(Nc2nccc(-c3cn(C)c4c(F)cc(F)cc34)n2)c(OC)cc1N(C)CCN(C)C [Example 89, N-(5-((4-(5,7-difluoro-1-methyl-1H-indol-3-yl)pyrimidin-2-yl)amino)-2-((2-(dimethylamino)ethyl)(methyl)amino)-4-methoxyphenyl)acrylamide]	8.57	4.04	112	–	34.6	–
C=CC(=O)Nc1cc(Nc2nccc(-n3cnc4ccc(OC)cc43)n2)c(OC)cc1N(C)CCN1CCCC1 [Example 139, N-(4-methoxy-5-((4-(6-methoxy-1H-benzo[d]imidazol-1-yl)pyrimidin-2-yl)amino)-2-(methyl(2-(pyrrolidin-1-yl)ethyl)amino)phenyl)acrylamide]	1.44	6.36	6.28	–	9.16	–
C=CC(=O)Nc1cc(Nc2nccc(-n3cnc4ccc(C#N)cc43)n2)c(OC)cc1N(C)CCN(C)C [Example 62, N-(5-((4-(6-cyano-1H-benzo[d]imidazol-1-yl)pyrimidin-2-yl)amino)-2-((2-(dimethylamino)ethyl)(methyl)amino)-4-methoxyphenyl)acrylamide]	8.32	3.18	26.3	–	26.4	–
C=CC(=O)Nc1cc(Nc2nccc(-n3ncc4cc(OCC)ccc43)n2)c(OC)cc1N(C)CCN1CCCC1 [Example 133]	0.69	10.86	6.47	–	7.49	–
C=CC(=O)Nc1cc(Nc2nccc(-c3cn(C(C)=O)c4ccccc34)n2)c(OC(F)F)cc1N(C)CCN(C)C [Example 7, N-(5-((4-(1-acetyl-1H-indol-3-yl)pyrimidin-2-yl)amino)-4-(difluoromethoxy)-2-((2-(dimethylamino)ethyl)(methyl)amino)phenyl)acrylamide]	–	–	15.8	–	15.5	192
C=CC(=O)Nc1cc(Nc2nccc(-c3cn(CCO)c4ccccc34)n2)c(OC(F)F)cc1N(C)CCN(C)C [Example 6, N-(4-(difluoromethoxy)-2-((2-(dimethylamino)ethyl)(methyl)amino)-5-((4-(1-(2-hydroxyethyl)-1H-indol-3-yl)pyrimidin-2-yl)amino)phenyl)acrylamide]	–	–	2.2	–	1.54	208
C#Cc1ccc2c(-c3ccnc(Nc4cc(NC(=O)C=C)c(N(C)CCN(C)C)cc4OC)n3)cn(C)c2c1 [Example 95, N-(2-((2-(dimethylamino)ethyl)(methyl)amino)-5-((4-(6-ethynyl-1-methyl-1H-indol-3-yl)pyrimidin-2-yl)amino)-4-methoxyphenyl)acrylamide]	0.51	–	10.9	–	5.35	–
C=CC(=O)Nc1cc(Nc2ncc(Cl)c(-c3cn(C4CC4)c4ccccc34)n2)c(OC)cc1N(C)CCN(C)C [Example 100, N-(5-((5-chloro-4-(1-cyclopropyl-1H-indol-3-yl)pyrimidin-2-yl)amino)-2-((2-(dimethylamino)ethyl)(methyl)amino)-4-methoxyphenyl)acrylamide]	–	–	8.72	–	–	350
C=CC(=O)Nc1cc(Nc2ncc(C(F)(F)F)c(-n3ncc4cc(C#N)ccc43)n2)c(OC)cc1N(C)CCN(C)C [Example 52, N-(5-((4-(5-cyano-1H-indazol-1-yl)-5-(trifluoromethyl)pyrimidin-2-yl)amino)-2-((2-(dimethylamino)ethyl)(methyl)amino)-4-methoxyphenyl)acrylamide]	1.08	107.1	4.52	–	116	–
C=CC(=O)Nc1cc(Nc2nccc(-c3cn(C)c4cc(P(C)(C)=O)ccc34)n2)c(OC(F)F)cc1N(C)CCN(C)C [Example 11, N-(4-(difluoromethoxy)-2-((2-(dimethylamino)ethyl)(methyl)amino)-5-((4-(6-(dimethylphosphoryl)-1-methyl-1H-indol-3-yl)pyrimidin-2-yl)amino)phenyl)acrylamide]	2.74	23.39	24.6	–	64.1	–
C=CCn1cc(-c2ccnc(Nc3cc(NC(=O)C=C)c(N(C)CCN(C)C)cc3OC)n2)c2ccccc21 [Example 141, N-(5-((4-(1-allyl-1H-indol-3-yl)pyrimidin-2-yl)amino)-2-((2-(dimethylamino)ethyl)(methyl)amino)-4-methoxyphenyl)acrylamide]	0.6	11.1	7.51	–	6.62	–
